The Deep4Chem optical property database
Values joined by “and” are separate entries in the source; they are usually repeats but may differ in a detail not shown here. Identical values can stand only once.

Assay: solvent given as SMILES

Work on `CN(C)c1ccc(-c2cc(-c3cccs3)nc(-c3ccccc3)n2)cc1` yielded an absorption maximum (in ClC(Cl)Cl) of 371 nm.

`CC(C)(C)c1ccc(-c2nc(-c3ccc(C(C)(C)C)cc3)nc(-c3cc(C#N)c(-n4c5ccccc5c5c6oc7ccccc7c6ccc54)c(C#N)c3)n2)cc1` gave an absorption maximum (in C1CCOC1) of 397.48 nm.

Compound `c1ccc(N(c2ccccc2)c2ccc(-c3ncc(-c4cccs4)s3)cc2)cc1` has an absorption maximum (in CO) of 387 nm.

For `CCCCCCCCCCCCCCCCCCN1C(=O)c2ccc3c4ccc5c6c(ccc(c7ccc(c2c37)C1=O)c64)C(=O)NC5=O`, the absorption maximum (in CN(C)C=O) was 523 nm.

In the case of `COc1cc(OC)c2cc(-c3ccc(-c4cc5c(OC)cc(OC)cc5oc4=O)cc3)c(=O)oc2c1`, the absorption maximum (in ClC(Cl)Cl) is reported as 372 nm.

With `CC1=CC(C)=[N+]2C1=C(c1ccc(N3CCCCC3)cc1)c1c(C)cc(C)n1[B-]2(F)F` the absorption maximum (in C1CCOC1) was 499 nm, the absorption maximum (in CC#N) was 496 nm and the absorption maximum (in CC(=O)C(C)(C)C) was 496 nm. It also gave an absorption maximum (in CC(C)=O) of 495 nm, an absorption maximum (in CCCCCC) of 500 nm and an absorption maximum (in CCOC(C)=O) of 498 nm. The absorption maximum (in CO) was 500 nm and 497 nm.

With `CCCCCCn1c2cc(/C=C/c3cccs3)ccc2c2ccc(/C=C/c3cccs3)cc21` the absorption maximum (in ClC(Cl)Cl) was 408.16 nm.

With `COc1ccc(N(c2ccc(OC)cc2)c2ccc(-c3ccc(C=C(C#N)C#N)cc3)cc2)cc1` the absorption maximum (in ClC(Cl)Cl) was 483 nm.

In the case of `O=P1(c2ccccc2)C(c2ccccc2)=Cc2cc3ccccc3cc21` (stereo not given), the absorption maximum (in ClCCl) is reported as 387 nm.

Work on `O=S(=O)(c1cccc(-n2c3ccccc3c3ccccc32)c1)c1cccc(-n2c3ccccc3c3ccccc32)c1` yielded an absorption maximum (in C1CCOC1) of 323 nm, an absorption maximum (in Cc1ccccc1) of 338 nm and an absorption maximum (in ClC(Cl)Cl) of 338 nm.

In the case of `CN(C)c1cc(-c2ccc(C#Cc3ccncc3)cc2)cc2ccccc12`, the absorption maximum (in CC#N) is reported as 306.26 nm, the absorption maximum (in CCO) is reported as 309.39 nm and the absorption maximum (in ClCCl) is reported as 311 nm.

`C(=C\c1cc(/C=C/c2ccccc2)cc(/C=C/c2ccccc2)c1)/c1ccccc1` showed an absorption maximum (in ClCCl) of 317 nm.

Compound `COc1ccc(C2=N/C(=C\c3ccc(C#N)cc3)C(=O)N2)cc1OC` has an absorption maximum (in C1COCCO1) of 405 nm.

For `CCCCCCN(CCCCCC)c1ccc(C#Cc2ccc(C(F)(F)F)cc2)cc1`, the absorption maximum (in CO) was 356 nm and the absorption maximum (in ClCCl) was 362 nm.

`O=Cc1ccc(-c2ccc(O)c(-c3nc4ccccc4s3)c2)s1` showed an absorption maximum (in ClCCl) of 350 nm and an absorption maximum (in O) of 338 nm.

`Cc1ccc(N(c2ccc(C)cc2)c2ccc(-c3ccc(C=C(C#N)C#N)o3)cc2)cc1` showed an absorption maximum (in ClC(Cl)Cl) of 521 nm.

Work on `CC1=CC(C)=[N+]2C1=C(c1ccc3cccnc3n1)c1c(C)cc(C)n1[B-]2(F)F` yielded an absorption maximum (in CC#N) of 501 nm, an absorption maximum (in CCCCCC) of 506 nm and an absorption maximum (in CO) of 503 nm. The absorption maximum (in ClC(Cl)Cl) was 509 nm and the absorption maximum (in ClCCl) was 506 nm.

`CN(C)c1ccc(/C=C/c2nc3cc(Br)ccc3nc2-c2ccccc2)cc1` gave an absorption maximum (in C1COCCO1) of 445 nm, an absorption maximum (in CC#N) of 448 nm and an absorption maximum (in ClCCl) of 453 nm.

`CCCn1c(=O)c(/C=C/c2nc3ccc(C)cc3n(CCC)c2=O)nc2ccc(C)cc21` showed an absorption maximum (in C1COCCO1) of 434 nm, an absorption maximum (in CC#N) of 431 nm and an absorption maximum (in ClCCl) of 434 nm.

Work on `CC(C)(C)c1cc2ccc3c(-c4ccc(N(c5ccccc5)c5ccccc5)cc4)ccc4c5nc6cc(C#N)c(C#N)cc6nc5c(c1)c2c34` yielded an absorption maximum (in Cc1ccccc1) of 500 nm.

In the case of `CC(C)(C)c1ccc2c(c1)c1cc(C(C)(C)C)cc3c1n2-c1cc(-c2ccccc2F)cc2c1B3c1cc(C(C)(C)C)cc3c4cc(C(C)(C)C)ccc4n-2c13`, the absorption maximum (in Cc1ccccc1) is reported as 471.56 nm.

In the case of `CCCCCCCCCCCCCCCCCC(=O)Oc1cc2[nH]c(cc2CCOC)c2nc(ccc3[nH]c(cc3CCOC)c3nc1C(CCOC)=C3)C(CCOC)=C2`, the absorption maximum (in Cc1ccccc1) is reported as 646 nm.

With `COc1ccc(/C2=C3N=C(C(c4ccccc4)=C/3c3ccccc3)/C(c3ccc(OC)cc3)=c3\[nH]/c(c(-c4ccccc4)c3-c3ccccc3)=C(/c3ccc(OC)cc3)C3=N/C(=C(/c4ccc(OC)cc4)c4[nH]c2c(-c2ccccc2)c4-c2ccccc2)C(c2ccccc2)=C3c2ccccc2)cc1` the absorption maximum (in ClCCl) was 731 nm.

For `CC1=[N+]2C(=C(c3ccc(C(=O)c4ccccc4)cc3)c3ccc(C)n3[B-]2(F)F)C=C1c1cc2n(c1)[B-](F)(F)[N+]1=CC=CC1=C2c1c(C)cc(C)cc1C`, the absorption maximum (in C1CCCCC1) was 599 nm and the absorption maximum (in CCOC(C)=O) was 601.5 nm.
